Test results as given in PMC11219945, “Assessing genotoxic effects of chemotherapy agents by a robust in vitro assay based on mass spectrometric quantification of γ-H2AX in HepG2 cells” (Frontiers in Pharmacology, 2024).

What was measured:
[1] = parameters: method as in earlier work; conditions: ref IARC; cited from earlier work
[2] = combination of in vitro mouse lymphoma, chromosomal aberration, and micronucleus tests; cited from earlier work
γ-H2AX in HepG2 cells [3] = assay: γ-H2AX time-effect relationship / DNA repair kinetics (k, t50) in HepG2 cells; assay type: cell-based, Human; parameters: k (speed of γ-H2AX descending): unit not given here; conditions: 100 μM, 0.5–8 h time-dependent kinetics
Description: The cells were then treated with different chemotherapy agents in serum-free medium. […] Independent biological experiments with three technical replicates were performed.
(§1) In short, the cell clumps were collected after a certain period of cell culture and histones were obtained by acid extraction. After nuclear isolation, histone extraction, trypsin digestion in the solution, and desalting, the peptide sample from the carboxy terminus of H2AX was analyzed. LC–MS/MS analysis was conducted using a QTRAP 5500 (AB Sciex, Framingham, United States) with an ACQUITY UPLC system (Waters Co., Manchester, United Kingdom). Chromatographic separation was carried out with an ACQUITY UPLC BEH C18 column (100 mm × 2.1 mm, 1.7 μm). The column temperature was maintained at 40°C. A 10 μL sample aliquot was injected for analysis. Mobile phases A and B were 0.1% FA in distilled H2O and acetonitrile, respectively. […] The eluent composition was maintained for 2 min, after which the system returned to 1% B and was re-equilibrated for 2 min. The eluates in the first 1 min were switched to waste to prevent contaminating the ion source. The electrospray ionization source was operated in positive mode using nitrogen as the nebulizing gas. All experiments were performed independently in at least triplicate.
Here, we estimated k and t50 after exposure to nine representative chemotherapy agents based on the 0.5–8 h γ-H2AX time-dependent kinetics (Figure 5) and then obtained these parameters to describe each agent DSB repair capacity using the functions optim and optimize in R language.

γ-H2AX in HepG2 cells [4] = assay: γ-H2AX MS assay, dose-effect relationship in HepG2 cells; conditions: human, 24 h
Description: Human hepatoblastoma cells (HepG2) were cultivated in DMEM medium under standard conditions (37°C in a 5% CO2 atmosphere). The culturing medium was added with 10% FBS, 100 U/mL penicillin and 100 μg/mL streptomycin.
In accordance to our previous study, cells were exposed to the chemotherapeutic agent by adding a proper volume of chemotherapeutic agent stock solution to the fresh medium without serum. Controls were treated with DMSO (0.1%) in medium. Independent biological experiments with three technical replicates were conducted.
The cells were then treated with different chemotherapy agents in serum-free medium. For a dose-effect relationship experiment, cells were exposed to each agent at either of three concentrations with a 10-fold increase for 24 h. For the time-effect relationship experiment of nine tested chemotherapy agents, cells were exposed to selected chemotherapy agents at 0.5, 1, 2, 4, 8, 12, and 24 h, with the concentration of 100 μM. Independent biological experiments with three technical replicates were performed.
as §1, with “The quantification of γ-H2AX was carried out according to the previous report ([Qu et al., 2021]). In” for “In”
To this end, we firstly examined the cytotoxicity of 34 chemotherapy agents, all of which were already well classified in terms of diverse characteristics. These tested chemotherapy agents were serially diluted for exposure to check the effects on cell viability.

| SMILES | IARC classification group [1] | In vitro assays (genotoxicity) [2] | k (speed of γ-H2AX descending) (γ-H2AX in HepG2 cells [3]) | t50 (time required for γ-H2AX to drop to half of the maximum value) (γ-H2AX in HepG2 cells [3]) [h] | maximum γ-H2AX value within the selected concentration range (γ-H2AX in HepG2 cells [4]) |
| --- | --- | --- | --- | --- | --- |
| COc1cccc2c1C(=O)c1c(O)c3c(c(O)c1C2=O)C[C@@](O)(C(C)=O)C[C@@H]3O[C@H]1C[C@H](N)[C@H](O)[C@H](C)O1 [Daunorubicin] | 2B | + | 0.139 | 3.344 | 23 |
| COc1cccc2c1C(=O)c1c(O)c3c(c(O)c1C2=O)C[C@@](O)(C(=O)CO)C[C@@H]3O[C@H]1C[C@H](N)[C@H](O)[C@H](C)O1 [Doxorubicin] | 2A | + | 0.088 | 4.269 | 21 |
